Data as given in PMC4899784, “LTP-1, a novel antimitotic agent and Stat3 inhibitor, inhibits human pancreatic carcinomas in vitro and in vivo” (Scientific Reports, 2016).

Columns and labels:
[1] = target: T1, tubulin (α/β-tubulin heterodimer) (Sus scrofa, UniProt P02550+P02554); experiment: cell-free tubulin polymerization assay (absorbance at […] nm), inhibition; type: biochemical
T1 construct: gene TUBA1A; with α/β-tubulin heterodimer

[2] = target: T1, tubulin (α/β-tubulin heterodimer); experiment: cell-free tubulin polymerization assay (absorbance at […] nm), enhancement; type: biochemical

T1 sequence (P02550 whole entry): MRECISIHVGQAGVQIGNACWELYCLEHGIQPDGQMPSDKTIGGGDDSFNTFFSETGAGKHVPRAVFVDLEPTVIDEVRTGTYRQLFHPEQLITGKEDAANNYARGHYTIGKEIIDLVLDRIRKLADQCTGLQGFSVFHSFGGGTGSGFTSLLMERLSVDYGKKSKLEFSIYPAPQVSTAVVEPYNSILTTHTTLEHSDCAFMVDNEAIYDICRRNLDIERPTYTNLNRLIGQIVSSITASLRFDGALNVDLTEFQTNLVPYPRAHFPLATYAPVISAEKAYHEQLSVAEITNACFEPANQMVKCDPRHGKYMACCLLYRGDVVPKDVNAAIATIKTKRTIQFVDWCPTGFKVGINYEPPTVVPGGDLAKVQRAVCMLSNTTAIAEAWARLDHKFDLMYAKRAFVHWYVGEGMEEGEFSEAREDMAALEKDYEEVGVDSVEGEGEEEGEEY
T1 sequence (P02554 whole entry): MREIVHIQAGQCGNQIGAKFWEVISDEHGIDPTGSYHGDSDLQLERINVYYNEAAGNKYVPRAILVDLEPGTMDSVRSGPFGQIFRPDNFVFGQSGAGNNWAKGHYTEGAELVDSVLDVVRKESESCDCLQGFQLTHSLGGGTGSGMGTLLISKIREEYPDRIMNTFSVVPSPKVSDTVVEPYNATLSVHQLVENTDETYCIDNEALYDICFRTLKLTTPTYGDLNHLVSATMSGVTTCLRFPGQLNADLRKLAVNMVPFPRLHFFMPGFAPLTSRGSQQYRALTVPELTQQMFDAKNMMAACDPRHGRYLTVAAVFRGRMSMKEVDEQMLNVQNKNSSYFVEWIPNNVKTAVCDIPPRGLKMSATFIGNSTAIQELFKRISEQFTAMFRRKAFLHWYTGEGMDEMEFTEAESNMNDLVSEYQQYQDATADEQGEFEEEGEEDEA

| SMILES | cell-free tubulin polymerization assay (absorbance at 340 nm), inhibition [1] | cell-free tubulin polymerization assay (absorbance at 340 nm), enhancement [2] |
| --- | --- | --- |
| COc1ccc(S(=O)(=O)Nc2ccccc2-c2ccc(C#N)cc2)cc1 [LTP-1] | LTP-1 acted like vincristine, to inhibit tubulin polymerization in a concentration-dependent manner | – |
| CC(=O)O[C@H]1C(=O)[C@@]2(C)[C@H]([C@H](OC(=O)c3ccccc3)[C@]3(O)C[C@H](OC(=O)[C@H](O)[C@@H](NC(=O)c4ccccc4)c4ccccc4)C(C)=C1C3(C)C)[C@]1(OC(C)=O)CO[C@@H]1C[C@@H]2O [paclitaxel] | – | Paclitaxel enhanced microtubule assembly and mitotic spindle formation, whereas LTP-1 and vincristine disrupted microtubule formation (Fig. 2A) |
